In patent publication US12527752B2, “Composition based on gellan gum and phenylephrine, production method and use as an ophthalmic product” (UNITHER PHARMACEUTICALS, priority 2019, dated 2026):

System: human corneal epithelial (HCE) cell line
Test: Cytotoxicity neutral red test
Format: cell-based
Details: HCE cells, 30 minutes incubation
Method: A human corneal epithelial (HCE) cell line was cultured in Dulbecco's essential medium (Eurobio, Les Ulis, France) supplemented with 10% fetal calf serum (Eurobio), 1% glutamine (Eurobio) and 1% penicillin and streptomycin (Eurobio). Cultures were maintained at 37° C. in 5% CO2 in a humidified incubator.
All wells were seeded with the same number of cells (9×10^4 cells/mL solution). After 24 hours, the cells reached about 70% to 80% confluency. The cells were washed with PBS and incubated for 30 minutes with 100 μL of gels in situ. […] The cells were then washed with PBS. A neutral red test was performed immediately after incubation and after 24 hours of recovery in the culture medium. The experiments were performed in triplicate.
The neutral red test (Fluka, Buchs, Switzerland) is a cell viability test based on the ability of viable cells to incorporate neutral red, which is a weak cationic dye that readily penetrates cell membranes by nonionic diffusion and accumulates in lysosomes. […] The integrity of the lysosomal membrane is closely related to cell viability and is assessed by neutral red fluorescence (excitation at 535 nm; emission at 600 nm). […] The dye was then released from the cells using 200 μL of lysis solution per well (1% acetic acid, 50% ethanol and 49% H2O), then the fluorescence was measured using a fluorometer for microplates (Safire; Tecan, Lyon, France).

SMILES: CNC[C@H](O)c1cccc(O)c1 [PHE, phenylephrine]
- effect on cell viability: significant cytotoxicity
